Test results reported in patent EP2730577A1, “CRYSTAL MODIFICATION OF A PARA-METHOXYANILIDE OF 6-HYDROXY-4-OXO-2,4,DIHYDRO-1H-PYRROLO[3,2,1-IJ]-QUINOLINE-5-CARBOXYLIC ACID” (Otkrytoe Aktsionernoe Obschestvo Mezhdunarodnaya, priority 2012, dated 2013).

Key:
white rats [1] = experiment: Diuretic effect (urinary excretion) in rats after oral administration; type: in vivo; conditions: for Diuresis after 5 hr.: 10 mg/kg orally as a fine suspension in water stabilized with Tween-80, after water load, urine excreted over 5 hrs, control 4.3 ± 0.20 ml, 10 mg/kg; for Diuretic effect: 5 hr, relative to control = 100, 10 mg/kg
Procedure: Example 6. Diuretic effect of the novel crystal modification (β-form) of 6-hydroxy-4-oxo-2,4-dihydro-1H-pyrrolo[3,2,1-ij]-quinoline-5-carboxylic acid para-metoxyanilide compared to the effect of the known crystal modification (α-form) of the same compound was studied on white rats weighing 180 - 200 g
(12 animals per each compound) using a standard technique. All tested animals received water via a gastric tube at 5 ml per […] of body weight. The control group received the same amount of water with Tween 80. The tested substances were administered orally at 10 mg/kg (median effective dose of the known α-form) as a fine suspension in water stabilized with Tween-80. After that, the tested animals were placed into "exchange cages". The urinary excretion intensity was determined by the amount of urine excreted by the animals over a period of 5 hrs. The experimental data shown in Table 9 leads to a conclusion that the diuretic action of the novel crystal modification (β-form) of 6-hydroxy-4-oxo-2,4-dihydro-1H-pyrrolo[3,2,1-ij]-quinoline-5-carboxylic acid para-metoxyanilide exceeds that of the known α-form by an average of 19%.

white rats [2] = conditions: diuretic effect, oral; stated for the known α-form without data of its own; cited from earlier work

SMILES | Diuresis after 5 hr. (white rats [1]) | Diuretic effect (white rats [1]; 10 mg/kg orally) | median effective dose (white rats [2]) | diuretic action exceeds that of the known α-form (white rats [1]; 10 mg/kg orally, 5 hrs, β-form versus α-form, average)
COc1ccc(NC(=O)c2c(O)c3cccc4c3n(c2=O)CC4)cc1 [Known α-form, 6-hydroxy-4-oxo-2,4-dihydro-1H-pyrrolo[3,2,1-ij]-quinoline-5-carboxylic acid para-metoxyanilide] | 9.7 ± 0.28 mL | 226% | 10 mg/kg | 
COc1ccc(NC(=O)c2c(O)c3cccc4c3n(c2=O)CC4)cc1 [Novel β-form, 6-hydroxy-4-oxo-2,4-dihydro-1H-pyrrolo[3,2,1-ij]-quinoline-5-carboxylic acid para-metoxyanilide] | 10.5 ± 0.27 mL | 245% |  | 19%
